According to PubChem BioAssay (NCI):
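Briefly, cells in 96-well plates were exposed to five compound concentrations for 48 h, and endpoints were estimated by linear interpolation. TGI: total growth inhibition.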

Assays:
Assay in all cases: growth of human tumour cells (NCI), 48 h
[1] = tested on: 786-0 renal
[2] = tested on: A498 renal
[3] = tested on: A549 NSCLC
[4] = tested on: ACHN renal
[5] = tested on: BT-549 breast
[6] = tested on: CAKI-1 renal
[7] = tested on: CCRF-CEM leukemia
[8] = tested on: COLO 205 colon
[9] = tested on: DU-145 prostate
[10] = tested on: EKVX NSCLC
[11] = tested on: HCC-2998 colon
[12] = tested on: HCT-116 colon
[13] = tested on: HCT-15 colon
[14] = tested on: HL-60(TB) leukemia
[15] = tested on: HOP-62 NSCLC
[16] = tested on: HOP-92 NSCLC
[17] = tested on: HS 578T breast
[18] = tested on: HT29 colon
[19] = tested on: IGROV1 ovarian
[20] = tested on: K-562 leukemia
[21] = tested on: KM12 colon
[22] = tested on: LOX IMVI melanoma
[23] = tested on: M14 melanoma
[24] = tested on: MALME-3M melanoma
[25] = tested on: MCF7 breast
[26] = tested on: MDA-MB-231 breast
[27] = tested on: MDA-MB-435
[28] = tested on: MDA-N
[29] = tested on: MOLT-4 leukemia
[30] = tested on: NCI-H226 lung
[31] = tested on: NCI-H23 lung
[32] = tested on: NCI-H522 lung
[33] = tested on: NCI/ADR-RES ovarian
[34] = tested on: OVCAR-3 ovarian
[35] = tested on: OVCAR-4 ovarian
[36] = tested on: OVCAR-5 ovarian
[37] = tested on: OVCAR-8 ovarian
[38] = tested on: PC-3 prostate
[39] = tested on: RPMI-8226 leukemia
[40] = tested on: RXF 393 renal
[41] = tested on: SF-268 CNS
[42] = tested on: SF-295 CNS
[43] = tested on: SK-MEL-2 melanoma
[44] = tested on: SK-MEL-28 melanoma
[45] = tested on: SK-MEL-5 melanoma
[46] = tested on: SK-OV-3 ovarian
[47] = tested on: SN12C renal
[48] = tested on: SNB-75 CNS
[49] = tested on: SR leukemia
[50] = tested on: SW-620 colon
[51] = tested on: T-47D breast
[52] = tested on: TK-10 renal
[53] = tested on: U251 CNS
[54] = tested on: UACC-257 melanoma
[55] = tested on: UACC-62 melanoma
[56] = tested on: UO-31 renal
[57] = tested on: NCI-H460 lung
[58] = tested on: SNB-19 CNS

Question: How did the TGI [1] turn out when CCc1n[nH]c(=O)n1N1C(=O)C2CCCCC2C1=O (stereo not drawn) was run?
Answer: Its TGI is > 100 µM.

Question: What about the TGI [2] of the same compound?
Answer: The TGI was > 100 µM.

Question: What about the TGI [3] of the same compound?
Answer: The TGI was > 100 µM.

Question: And the TGI [4]?
Answer: The TGI was > 100 µM.

Question: And the TGI [5]?
Answer: Its TGI is > 100 µM.

Question: What about the TGI [6] of the same compound?
Answer: Its TGI is > 100 µM.

Question: What about the TGI [7] of the same compound?
Answer: Its TGI is > 100 µM.

Question: And the TGI [8]?
Answer: Its TGI is > 100 µM.

Question: And the TGI [9]?
Answer: The TGI was > 100 µM.

Question: What about the TGI [10] of the same compound?
Answer: Its TGI is > 100 µM.

Question: What about the TGI [11] of the same compound?
Answer: Its TGI is > 100 µM.

Question: And the TGI [12]?
Answer: Its TGI is > 100 µM.

Question: What about the TGI [13] of the same compound?
Answer: The TGI was > 100 µM.

Question: What about the TGI [14] of the same compound?
Answer: The TGI was > 100 µM.

Question: What about the TGI [15] of the same compound?
Answer: Its TGI is > 100 µM.

Question: And the TGI [16]?
Answer: Its TGI is > 100 µM.

Question: And the TGI [17]?
Answer: The TGI was > 100 µM.

Question: What about the TGI [18] of the same compound?
Answer: Its TGI is > 100 µM.

Question: What about the TGI [19] of the same compound?
Answer: The TGI was > 100 µM.

Question: And the TGI [20]?
Answer: The TGI was > 100 µM.

Question: And the TGI [21]?
Answer: Its TGI is > 100 µM.

Question: And the TGI [22]?
Answer: The TGI was > 100 µM.

Question: And the TGI [23]?
Answer: The TGI was > 100 µM.

Question: What about the TGI [24] of the same compound?
Answer: The TGI was > 100 µM.

Question: And the TGI [25]?
Answer: Its TGI is > 100 µM.

Question: And the TGI [26]?
Answer: Its TGI is > 100 µM.

Question: And the TGI [27]?
Answer: The TGI was > 100 µM.

Question: And the TGI [28]?
Answer: Its TGI is > 100 µM.

Question: What about the TGI [29] of the same compound?
Answer: The TGI was > 100 µM.

Question: What about the TGI [30] of the same compound?
Answer: Its TGI is > 100 µM.

Question: What about the TGI [31] of the same compound?
Answer: The TGI was > 100 µM.

Question: What about the TGI [32] of the same compound?
Answer: Its TGI is > 100 µM.

Question: And the TGI [33]?
Answer: Its TGI is > 100 µM.

Question: And the TGI [34]?
Answer: The TGI was > 100 µM.

Question: And the TGI [35]?
Answer: Its TGI is > 100 µM.

Question: And the TGI [36]?
Answer: Its TGI is > 100 µM.

Question: And the TGI [37]?
Answer: Its TGI is > 100 µM.

Question: And the TGI [38]?
Answer: The TGI was > 100 µM.

Question: What about the TGI [39] of the same compound?
Answer: Its TGI is > 100 µM.

Question: And the TGI [40]?
Answer: The TGI was > 100 µM.

Question: What about the TGI [41] of the same compound?
Answer: Its TGI is > 100 µM.

Question: What about the TGI [42] of the same compound?
Answer: Its TGI is > 100 µM.

Question: What about the TGI [43] of the same compound?
Answer: The TGI was > 100 µM.

Question: And the TGI [44]?
Answer: The TGI was > 100 µM.

Question: What about the TGI [45] of the same compound?
Answer: The TGI was > 100 µM.

Question: And the TGI [46]?
Answer: The TGI was > 100 µM.

Question: And the TGI [47]?
Answer: Its TGI is > 100 µM.

Question: And the TGI [48]?
Answer: Its TGI is > 100 µM.

Question: What about the TGI [49] of the same compound?
Answer: The TGI was > 100 µM.

Question: And the TGI [50]?
Answer: The TGI was > 100 µM.

Question: And the TGI [51]?
Answer: Its TGI is > 100 µM.

Question: What about the TGI [52] of the same compound?
Answer: The TGI was > 100 µM.

Question: What about the TGI [53] of the same compound?
Answer: The TGI was > 100 µM.

Question: And the TGI [54]?
Answer: The TGI was > 100 µM.

Question: And the TGI [55]?
Answer: Its TGI is > 100 µM.

Question: What about the TGI [56] of the same compound?
Answer: The TGI was > 100 µM.

Question: For CC1(C)CC[C@]2(C(=O)O)CC[C@]3(C)C(=CC[C@@H]4[C@@]5(C)CC[C@H](OC6OC(C(=O)O)C(O)C(O)C6O)C(C)(C)[C@@H]5CC[C@]43C)[C@@H]2C1 (stereo partly drawn), which TGI [1] is on record?
Answer: Its TGI is 33.6 µM.

Question: And the TGI [2]?
Answer: The TGI was 35.7 µM.

Question: What about the TGI [3] of the same compound?
Answer: The TGI was 39.3 µM.

Question: And the TGI [4]?
Answer: Its TGI is 29.6 µM.

Question: What about the TGI [5] of the same compound?
Answer: The TGI was 40.5 µM.

Question: What about the TGI [6] of the same compound?
Answer: The TGI was 33.7 µM.

Question: And the TGI [7]?
Answer: The TGI was 42.8 µM.

Question: And the TGI [8]?
Answer: Its TGI is 30.8 µM.

Question: What about the TGI [9] of the same compound?
Answer: The TGI was 31.4 µM.

Question: And the TGI [10]?
Answer: The TGI was 64.8 µM.

Question: And the TGI [11]?
Answer: The TGI was 38.2 µM.

Question: And the TGI [12]?
Answer: The TGI was 30.4 µM.

Question: And the TGI [13]?
Answer: Its TGI is 30.6 µM.

Question: What about the TGI [14] of the same compound?
Answer: The TGI was 35.5 µM.

Question: What about the TGI [15] of the same compound?
Answer: The TGI was 33.9 µM.

Question: What about the TGI [16] of the same compound?
Answer: Its TGI is 25.9 µM.

Question: And the TGI [17]?
Answer: Its TGI is 44 µM.

Question: What about the TGI [18] of the same compound?
Answer: The TGI was 28.4 µM.

Question: What about the TGI [19] of the same compound?
Answer: Its TGI is 35 µM.

Question: And the TGI [20]?
Answer: Its TGI is 37.5 µM.

Question: What about the TGI [21] of the same compound?
Answer: The TGI was 34.7 µM.

Question: What about the TGI [22] of the same compound?
Answer: The TGI was 35.8 µM.

Question: What about the TGI [23] of the same compound?
Answer: The TGI was 30.6 µM.

Question: And the TGI [24]?
Answer: Its TGI is 34.2 µM.

Question: And the TGI [25]?
Answer: Its TGI is 40.8 µM.

Question: And the TGI [26]?
Answer: Its TGI is 33.5 µM.

Question: What about the TGI [27] of the same compound?
Answer: The TGI was 38.5 µM.

Question: And the TGI [28]?
Answer: The TGI was 33.8 µM.

Question: What about the TGI [29] of the same compound?
Answer: Its TGI is 41.3 µM.

Question: What about the TGI [30] of the same compound?
Answer: Its TGI is 39.5 µM.

Question: And the TGI [31]?
Answer: The TGI was 37.1 µM.

Question: And the TGI [57]?
Answer: The TGI was 37.2 µM.

Question: And the TGI [32]?
Answer: Its TGI is 35.3 µM.

Question: What about the TGI [33] of the same compound?
Answer: Its TGI is 37.2 µM.

Question: What about the TGI [34] of the same compound?
Answer: The TGI was 28 µM.

Question: And the TGI [35]?
Answer: The TGI was 33.9 µM.

Question: And the TGI [36]?
Answer: The TGI was 29.7 µM.

Question: And the TGI [37]?
Answer: The TGI was 44.9 µM.

Question: What about the TGI [38] of the same compound?
Answer: The TGI was 33 µM.

Question: And the TGI [39]?
Answer: Its TGI is 44.4 µM.

Question: What about the TGI [40] of the same compound?
Answer: Its TGI is 31.1 µM.

Question: What about the TGI [41] of the same compound?
Answer: The TGI was 38.6 µM.

Question: And the TGI [42]?
Answer: Its TGI is 28.7 µM.

Question: What about the TGI [43] of the same compound?
Answer: The TGI was 29.8 µM.

Question: And the TGI [44]?
Answer: Its TGI is 39.7 µM.

Question: What about the TGI [45] of the same compound?
Answer: The TGI was 33.2 µM.

Question: What about the TGI [46] of the same compound?
Answer: The TGI was 41.6 µM.

Question: What about the TGI [47] of the same compound?
Answer: Its TGI is 30.8 µM.

Question: And the TGI [58]?
Answer: The TGI was 48.7 µM.

Question: What about the TGI [48] of the same compound?
Answer: The TGI was 35.1 µM.

Question: And the TGI [49]?
Answer: Its TGI is 41.1 µM.

Question: And the TGI [50]?
Answer: Its TGI is 31.8 µM.

Question: And the TGI [51]?
Answer: Its TGI is 36.3 µM.

Question: And the TGI [53]?
Answer: Its TGI is 28 µM.

Question: What about the TGI [54] of the same compound?
Answer: Its TGI is 30.8 µM.

Question: What about the TGI [55] of the same compound?
Answer: The TGI was 33.4 µM.

Question: And the TGI [56]?
Answer: The TGI was 36.3 µM.
